According to paper PMC7516806, “Hybrid Antimicrobial Peptide Targeting Staphylococcus aureus and Displaying Anti-infective Activity in a Murine Model” (Frontiers in Microbiology, 2020):

Tests used:
S. aureus 29213 [1] = assay: Histology (HE) of infected skin tissue; assay type: in vivo, ICR mice; conditions: 24 h after injection of S. aureus
Procedure: (§1) To assess the antimicrobial activity of the peptide in vivo, a mouse model of subcutaneous infection was used ([Huang et al., 2011a]; [Omolo et al., 2017]). Female Institute for Cancer Research (ICR) mice (SPF, 20–25 g) were purchased from WeiTonglihua Co., Ltd. (Beijing, China), with eight animals per group. The mice were shaved on their backs and disinfected. S. aureus 29213 (100 μL) at a concentration of 1 × 10^8 CFU/mL was injected into the superficial skin of the mice. The mice were divided into four groups (n = 4), as follows: S. aureus + saline, S. aureus + S2 (80× MIC, 100 μL), S. aureus + vancomycin (Van) (80× MIC, 100 μL), and saline. S2, vancomycin, and saline were injected at the same site 1 h after infection. The mice were monitored over 24 h in an environmentally controlled room at 25 ± 1°C and 55 ± 5% relative humidity with a 12 h light/dark cycle.
(§2) To image the infected skin tissues, the mice were euthanized 24 h after the injection of S. aureus. Samples were fixed in 4% buffered paraformaldehyde and subjected to hematoxylin/eosin (HE) staining. The antimicrobial activity in vivo was determined by colony counting of infected skin samples. Skin homogenates were serially diluted in saline and incubated at 37°C for 24 h.

IL-6 = assay: Cytokine ELISA in infected skin; assay type: in vivo, ICR mice; conditions: 24 h after treatment, P < 0.05
Procedure: as §1
(§3) The mice were treated as described above. Skin samples were treated according to the manufacturer’s instructions. The levels of tumor necrosis factor-alpha (TNF-α), interleukin-6 (IL-6), and granulocyte-macrophage colony-stimulating factor (GM-CSF) in infected skin were measured using enzyme-linked immunosorbent assay (ELISA) kits following the manufacturer’s instructions.

TNF-α = assay: Cytokine ELISA in infected skin; assay type: in vivo, ICR mice; conditions: 24 h after treatment, P < 0.05
Procedure: as §1, §3

S. aureus 29213 [2] = assay: Mouse model of subcutaneous infection; assay type: in vivo, ICR mice; conditions: 80× MIC
Procedure: as §1, §2

[3] = test system: Staphylococcus aureus 29213; assay: Bacterial resistance development, serial passaging; assay type: cell-based; conditions: serial passage at sub-MIC for 15 days
Source text: Staphylococcus aureus 29213 was employed to assess the development of resistance by the serial passaging method, as previously described ([Lyu et al., 2017]). Minimum inhibitory concentration testing was first conducted for all of the compounds to be tested, as described above. S. aureus was harvested from 96-well plates of sub-MIC levels, diluted in MHB to a concentration of 2–7 × 10^5 CFU/mL, and then subjected to MIC determination for up to 15 days. The change in MIC values determines the development of antibiotic resistance in S. aureus.

Row | Compound | histomorphological changes of skin tissue (HE) (S. aureus 29213 [1]) | IL-6 generation in infected skin (IL-6) | TNF-α generation in infected skin (TNF-α) | decrease in bacterial colonies at infection site versus control group (S. aureus 29213 [2]; 100 μL injected at the infected site 1 h after infection, skin homogenate colony count after 24 h, P < 0.01) [fold] | ulceration (lesion) size, length × width (S. aureus 29213 [2]; 100 μL, 1 h after infection) | change in MIC value, 15th day versus first day [3] [fold]
1 | CN[C@H](CC(C)C)C(=O)N[C@H]1C(=O)N[C@@H](CC(N)=O)C(=O)N[C@H]2C(=O)N[C@H]3C(=O)N[C@H](C(=O)N[C@H](C(=O)O)c4cc(O)cc(O)c4-c4cc3ccc4O)[C@H](O)c3ccc(c(Cl)c3)Oc3cc2cc(c3O[C@@H]2O[C@H](CO)[C@@H](O)[C@H](O)[C@H]2O[C@H]2C[C@](C)(N)[C@H](O)[C@H](C)O2)Oc2ccc(cc2Cl)[C@H]1O [vancomycin, reference compound] | good recovery | suppressed | suppressed | 10 | significantly reduced ulceration sizes | –
2 | penicillin [reference compound] | – | – | – | – | – | 16
